This note sets out measurements from BindingDB's records for doi:10.1021/jm00079a024 (Roche Products, 1992).

The IC50 is the point on the concentration scale where inhibition reaches its midpoint. High values mean weaker potency, low ones greater potency.

The first experiment has as its target cAMP-dependent protein kinase catalytic subunit alpha (Bos taurus, UniProt P00517). Put plainly: PKA assay.
Conditions: not given
For `Cn1cc(C2=C(c3csc4ccccc34)C(=O)NC2=O)c2ccccc21` [3-(1-benzothiophen-3-yl)-4-(1-methyl-1H-indol-3-yl)-2,5-dihydro-1H-pyrrole-2,5-dione], the IC50 is greater than 100 µM.

Regarding `Cn1cc(C2=C(c3cn(C)c4cccc([N+](=O)[O-])c34)C(=O)NC2=O)c2ccccc21` [3-(1-methyl-1H-indol-3-yl)-4-(1-methyl-4-nitro-1H-indol-3-yl)-2,5-dihydro-1H-pyrrole-2,5-dione], the IC50 was greater than 100 µM.

As for `Cc1cccc(C2=C(c3cn(C)c4ccccc34)C(=O)NC2=O)c1` [3-(1-methyl-1H-indol-3-yl)-4-(3-methylphenyl)-2,5-dihydro-1H-pyrrole-2,5-dione], the IC50 is greater than 100 µM.

As to `Cn1cc(C2=C(c3ccccc3)C(=O)NC2=O)c2ccccc21` [3-(1-methyl-1H-indol-3-yl)-4-phenyl-2,5-dihydro-1H-pyrrole-2,5-dione], the IC50 was greater than 100 µM.

In turn, `Cn1cc(C2=C(c3cc(Cl)cc(Cl)c3)C(=O)NC2=O)c2ccccc21` [3-(3,5-dichlorophenyl)-4-(1-methyl-1H-indol-3-yl)-2,5-dihydro-1H-pyrrole-2,5-dione] showed an IC50 greater than 100 µM.

In turn, `Cn1cc(C2=C(c3cccc(N)c3)C(=O)NC2=O)c2ccccc21` [3-(3-aminophenyl)-4-(1-methyl-1H-indol-3-yl)-2,5-dihydro-1H-pyrrole-2,5-dione] came in with an IC50 greater than 100 µM.

Regarding `Cn1cc(C2=C(c3cccc(Cl)c3)C(=O)NC2=O)c2ccccc21` [3-(3-chlorophenyl)-4-(1-methyl-1H-indol-3-yl)-2,5-dihydro-1H-pyrrole-2,5-dione], the IC50 was greater than 100 µM.

The same experiment, now with this note: pH 8.5; 37 °C.
In the case of `Cn1cc(C2=C(c3cn(Cc4ccccc4)c4ccccc34)C(=O)NC2=O)c2ccccc21` [3-(1-benzyl-1H-indol-3-yl)-4-(1-methyl-1H-indol-3-yl)-2,5-dihydro-1H-pyrrole-2,5-dione], the IC50 was greater than 100 µM.

A further experiment deals with Protein kinase C beta type (Rattus norvegicus, UniProt P68403). Put plainly: PKC assay.
Protein kinase C beta type, sequence (P68403 whole entry): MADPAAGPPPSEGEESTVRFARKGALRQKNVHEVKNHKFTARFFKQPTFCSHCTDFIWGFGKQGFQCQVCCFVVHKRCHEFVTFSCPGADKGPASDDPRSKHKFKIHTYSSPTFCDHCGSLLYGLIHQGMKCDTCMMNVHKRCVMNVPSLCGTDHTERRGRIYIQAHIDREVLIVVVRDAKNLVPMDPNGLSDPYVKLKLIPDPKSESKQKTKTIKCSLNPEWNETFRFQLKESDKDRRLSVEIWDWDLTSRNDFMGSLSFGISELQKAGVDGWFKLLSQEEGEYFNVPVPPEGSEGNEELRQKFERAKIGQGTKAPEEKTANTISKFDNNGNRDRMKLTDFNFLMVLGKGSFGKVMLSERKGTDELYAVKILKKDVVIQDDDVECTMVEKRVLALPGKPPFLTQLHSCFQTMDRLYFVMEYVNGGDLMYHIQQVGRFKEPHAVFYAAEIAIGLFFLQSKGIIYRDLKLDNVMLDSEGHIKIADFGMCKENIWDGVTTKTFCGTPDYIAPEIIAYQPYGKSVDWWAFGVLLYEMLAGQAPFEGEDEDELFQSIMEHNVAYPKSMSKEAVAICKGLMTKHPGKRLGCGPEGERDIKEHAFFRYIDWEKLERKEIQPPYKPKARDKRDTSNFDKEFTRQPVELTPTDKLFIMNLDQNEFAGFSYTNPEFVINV
Conditions: not given
Compound `Cn1cc(C2=C(c3cn(C)c4ccc(C(=O)O)cc34)C(=O)NC2=O)c2ccccc21` [1-methyl-3-[4-(1-methyl-1H-indol-3-yl)-2,5-dioxo-2,5-dihydro-1H-pyrrol-3-yl]-1H-indole-5-carboxylic acid] had an IC50 greater than 50 µM.

`Cn1cc(C2=C(c3cccc(Oc4ccccc4)c3)C(=O)NC2=O)c2ccccc21` [3-(1-methyl-1H-indol-3-yl)-4-(3-phenoxyphenyl)-2,5-dihydro-1H-pyrrole-2,5-dione] gave a 50% inhibitory concentration (IC50) greater than 100 µM.

The compound `CSc1ccc(C2=C(c3cn(C)c4ccccc34)C(=O)NC2=O)cc1` [3-(1-methyl-1H-indol-3-yl)-4-[4-(methylsulfanyl)phenyl]-2,5-dihydro-1H-pyrrole-2,5-dione] came in with an IC50 greater than 50 µM.

For the compound `Cn1cc(C2=C(c3ccc(Cl)cc3)C(=O)NC2=O)c2ccccc21` [3-(4-chlorophenyl)-4-(1-methyl-1H-indol-3-yl)-2,5-dihydro-1H-pyrrole-2,5-dione], the IC50 was greater than 100 µM.

In the case of `Cn1cc(C2=C(c3ccc(S(C)(=O)=O)cc3)C(=O)NC2=O)c2ccccc21` [3-(4-methanesulfonylphenyl)-4-(1-methyl-1H-indol-3-yl)-2,5-dihydro-1H-pyrrole-2,5-dione], the IC50 was greater than 100 µM.

The experiment is the same for the next values; noted with them: pH 7.5; 30 °C.
In turn, `CN1C(=O)C(c2c[nH]c3ccccc23)=C(c2c[nH]c3ccccc23)C1=O` had a concentration for half-maximal inhibition (IC50) greater than 100 µM.

For the compound `O=C1OC(=O)C(c2c[nH]c3ccccc23)=C1c1c[nH]c2ccccc12` [3,4-bis(1H-indol-3-yl)-2,5-dihydrofuran-2,5-dione], the IC50 is greater than 100 µM.

Turning to `Cn1cc(C2=C(c3cc4ccccc4n3C)C(=O)NC2=O)c2ccccc21` [3-(1-methyl-1H-indol-2-yl)-4-(1-methyl-1H-indol-3-yl)-2,5-dihydro-1H-pyrrole-2,5-dione], the IC50 is greater than 100 µM.

On to `O=C1NC(=O)[C@@H](c2c[nH]c3ccccc23)[C@@H]1c1c[nH]c2ccccc12` [(3R,4R)-3,4-bis(1H-indol-3-yl)pyrrolidine-2,5-dione], for which the IC50 was greater than 100 µM.

For the compound `O=C1NC(=O)[C@@H](c2c[nH]c3ccccc23)[C@H]1c1c[nH]c2ccccc12` [(3R,4S)-3,4-bis(1H-indol-3-yl)pyrrolidine-2,5-dione], the IC50 was greater than 100 µM.
